Laboratory results: US8999956B2, “N-[(het)arylalkyl)] pyrazole(thio)carboxamides and their heterosubstituted analogues” (Bayer Intellectual Property GmbH, priority 2010, dated 2015)

Experiment: log P by HPLC on reversed-phase column (EEC Directive 79/831 Annex V.A8)
Assay type: physicochemical
Details: not given
Method: In table 1, the log P values were determined in accordance with EEC Directive 79/831 Annex V.A8 by HPLC (High Performance Liquid Chromatography) on a reversed-phase column (C18), using the method described below: Temperature: 40° C.; […]

| SMILES | logP |
| --- | --- |
| Cn1nc(C(F)F)c(C(=O)NC(COc2ccc3ccccc3c2)C2CC2)c1Cl (racemic) [Example 138] | 3.94 |
| CN(C(=O)c1c(C(F)F)nn(C)c1Cl)C(COc1ccc2ccccc2c1)C1CC1 (racemic) [Example 140] | 3.96 |
| CN(C(=O)c1c(C(F)F)nn(C)c1Cl)C(COc1ccccc1Cl)C1CC1 (racemic) [Example 146] | 3.67 |
| CC(O)C1CCCCC1NC(=O)c1c(C(F)F)nn(C)c1F (single isomer, unassigned) [Example 342] | 2.08 isomer B |
| CC(C)N(CC(=O)Nc1ccccc1)C(=O)c1c(C(F)F)nn(C)c1F [Example 1] | 2.25 |
| CC(C)N(CC(=O)Nc1ccccc1)C(=O)c1c(C(F)F)nn(C)c1Cl [Example 2] | 2.43 |
| Cn1nc(C(F)F)c(C(=O)NC2(C(=O)Nc3ccccc3)CCCC2)c1F [Example 3] | 2.46 |
| Cn1nc(C(F)F)c(C(=O)NC2(C(=O)Nc3ccccc3)CCCC2)c1Cl [Example 4] | 2.62 |
| CCCN(CCOc1ccccc1)C(=O)c1c(C(F)F)nn(C)c1Cl [Example 7] | 3.21 |
| CC(COc1ccccc1)N(C)C(=O)c1c(C(F)F)nn(C)c1Cl (stereo not drawn) [Example 15] | 2.78 |
| CN(CC(NC(=O)c1c(C(F)F)nn(C)c1Cl)C1CC1)c1ccccc1 (stereo not drawn) [Example 18] | 3.31 |
| Cn1nc(C(F)F)c(C(=O)NC(COc2ccccc2)C2CC2)c1Cl (stereo not drawn) [Example 20] | 3.25 |
| Cn1nc(C(F)F)c(C(=O)NC(CSc2ccccc2)C2CC2)c1Cl (stereo not drawn) [Example 23] | 3.44 |
| Cn1nc(C(F)F)c(C(=O)NC(C)(C)C(=O)Nc2ccccc2)c1F [Example 24] | 2.10 |
| Cn1nc(C(F)F)c(C(=O)NC(C)(C)C(=O)Nc2ccccc2)c1Cl [Example 25] | 2.27 |
| Cn1nc(C(F)F)c(C(=O)NCCOc2ccc(-c3ccccc3)cc2)c1Cl [Example 26] | 3.60 |
| Cn1nc(C(F)F)c(C(=O)NCCOc2ccc(-c3ccccc3)cc2)c1F [Example 27] | 3.44 |
| CCCN(C(=O)c1c(C(F)F)nn(C)c1F)C(C)COc1ccccc1-c1ccccc1 (stereo not drawn) [Example 30] | 4.32 |
| CCCN(C(=O)c1c(C(F)F)nn(C)c1Cl)C(C)COc1ccccc1-c1ccccc1 (stereo not drawn) [Example 31] | 4.51 |
| CCN(C(=O)c1c(C(F)F)nn(C)c1Cl)C(C)COc1ccc(C)cc1 (stereo not drawn) [Example 39] | 3.48 |
| Cc1ccc(SCC(C2CC2)N(C)C(=O)c2c(C(F)F)nn(C)c2Cl)cc1 (stereo not drawn) [Example 41] | 3.85 |
| Cn1nc(C(F)F)c(C(=O)NCCOc2ccc(Cl)cc2)c1Cl [Example 49] | 2.96 |
| CC(C)N(CCOc1ccc(Cl)cc1)C(=O)c1c(C(F)F)nn(C)c1Cl [Example 53] | 3.78 |
| CCCN(CCOc1ccc(Cl)cc1)C(=O)c1c(C(F)F)nn(C)c1Cl [Example 54] | 3.67 |
| CC(C)N(CCOc1ccc(Cl)cc1)C(=O)c1c(C(F)F)nn(C)c1F [Example 56] | 3.62 |
| Cn1nc(C(F)F)c(C(=O)NCCS(=O)(=O)c2ccc(Cl)cc2)c1F [Example 58] | 2.10 |

| SMILES | logP |
| --- | --- |
| Cn1nc(C(F)F)c(C(=O)NCCS(=O)(=O)c2ccc(Cl)cc2)c1Cl [Example 59] | 2.30 |
| Cn1nc(C(F)F)c(C(=O)NC(CCc2ccc(Cl)cc2)C(C)(C)C)c1F (stereo not drawn) [Example 60] | 4.24 |
| Cn1nc(C(F)F)c(C(=O)NC(CCc2ccc(Cl)cc2)C(C)(C)C)c1Cl (stereo not drawn) [Example 61] | 4.41 |
| Cc1cc(C)nc(CCC(C)NC(=O)c2c(C(F)F)nn(C)c2Cl)c1 (stereo not drawn) [Example 64] | 1.81 |
| CCCN(CCOc1ccc(C(=O)OCC)cc1)C(=O)c1c(C(F)F)nn(C)c1Cl [Example 72] | 3.44 |
| Cn1nc(C(F)F)c(C(=O)NCCOc2cccc(Oc3ccccc3)c2)c1Cl [Example 75] | 3.60 |
| CC(CCc1ncc(C(F)(F)F)cc1Cl)N(C(=O)c1c(C(F)F)nn(C)c1Cl)C1CC1 (stereo not drawn) [Example 85] | 4.11 |
| CC(CCc1ncc(C(F)(F)F)cc1Cl)N(C)C(=O)c1c(C(F)F)nn(C)c1F (stereo not drawn) [Example 87] | 3.29 |
| CC(CCc1ncc(C(F)(F)F)cc1Cl)N(C)C(=O)c1c(C(F)F)nn(C)c1Cl (stereo not drawn) [Example 88] | 3.45 |
| Cn1nc(C(F)F)c(C(=O)NCCCc2cc3ccccc3o2)c1F [Example 92] | 2.90 |
| Cn1nc(C(F)F)c(C(=O)NCCCc2cc3ccccc3s2)c1F [Example 95] | 3.17 |
| Cc1ccc(C(C)CCN(C)C(=O)c2c(C(F)F)nn(C)c2Cl)o1 (stereo not drawn) [Example 110] | 3.02 |
| CON(CCC(C)c1ccc(C)o1)C(=O)c1c(C(F)F)nn(C)c1Cl (stereo not drawn) [Example 111] | 3.29 |
| Cn1nc(C(F)F)c(C(=O)NCCOc2cc(Cl)cc(Cl)c2)c1Cl [Example 118] | 3.55 |
| Cn1nc(C(F)F)c(C(=O)NC(C)(C)CCc2ccc(Cl)c(Cl)c2)c1Cl [Example 133] | 4.44 |
| Cc1cccc(C)c1OCCNC(=O)c1c(C(F)F)nn(C)c1Cl [Example 152] | 3.13 |
| Cn1nc(C(F)F)c(C(=O)NCCOc2c(F)cccc2F)c1Cl [Example 160] | 2.64 |
| CC(CCc1ccc(Cl)cc1Cl)NC(=O)c1c(C(F)F)nn(C)c1F (stereo not drawn) [Example 186] | 3.79 |
| Cn1nc(C(F)F)c(C(=O)NCC(=O)Nc2c(Cl)cc(Cl)cc2Cl)c1F [Example 197] | 2.39 |
| Cn1nc(C(F)F)c(C(=O)NCC(=O)Nc2c(Cl)cc(Cl)cc2Cl)c1Cl [Example 198] | 2.56 |
| CCCN(CC(=O)Nc1c(Cl)cc(Cl)cc1Cl)C(=O)c1c(C(F)F)nn(C)c1Cl [Example 199] | 3.11 |
| CCCN(CC(=O)Nc1c(Cl)cc(Cl)cc1Cl)C(=O)c1c(C(F)F)nn(C)c1F [Example 200] | 2.96 |
| Cn1nc(C(F)F)c(C(=O)NCCOc2c(Cl)cc(Cl)cc2Cl)c1Cl [Example 201] | 3.80 |
| CC(C)N(CCOc1c(Cl)cc(Cl)cc1Cl)C(=O)c1c(C(F)F)nn(C)c1F [Example 203] | 4.51 |
| CCCN(CCOc1c(Cl)cc(Cl)cc1Cl)C(=O)c1c(C(F)F)nn(C)c1Cl [Example 205] | 4.56 |
| Cn1nc(C(F)F)c(C(=O)N(CCOc2c(Cl)cc(Cl)cc2Cl)C2CCCC2)c1Cl [Example 206] | 5.27 |

Second part, the compound after the results:

| logP | SMILES |
| --- | --- |
| 3.06 | CCCN(CCOc1ccccc1)C(=O)c1c(C(F)F)nn(C)c1F [Example 8] |
| 3.78 | Cn1nc(C(F)F)c(C(=O)N(CCOc2ccc(Cl)cc2)C2CCC2)c1F [Example 50] |
| 4.32 | Cn1nc(C(F)F)c(C(=O)N(CCOc2ccc(Cl)cc2)C2CCCC2)c1Cl [Example 51] |
| 3.99 | Cn1nc(C(F)F)c(C(=O)N(CCOc2ccc(Cl)cc2)C2CCC2)c1Cl [Example 52] |
| 4.13 | Cn1nc(C(F)F)c(C(=O)N(CCOc2ccc(Cl)cc2)C2CCCC2)c1F [Example 55] |
| 3.53 | CCCN(CCOc1ccc(Cl)cc1)C(=O)c1c(C(F)F)nn(C)c1F [Example 57] |
| 3.31 | CCCN(CCOc1ccc(C(=O)OCC)cc1)C(=O)c1c(C(F)F)nn(C)c1F [Example 73] |
| 3.92 | CC(CCc1ncc(C(F)(F)F)cc1Cl)N(C(=O)c1c(C(F)F)nn(C)c1F)C1CC1 (stereo not drawn) [Example 86] |
| 3.63 | CCC(CCc1sccc1Br)NC(=O)c1c(C(F)F)nn(C)c1Cl (stereo not drawn) [Example 90] |
| 3.52 | Cn1nc(C(F)F)c(C(=O)N(CCCc2cc3ccccc3o2)C2CC2)c1F [Example 91] |
| 3.00 | CN(CCCc1cc2ccccc2o1)C(=O)c1c(C(F)F)nn(C)c1F [Example 93] |
| 3.79 | Cn1nc(C(F)F)c(C(=O)N(CCCc2cc3ccccc3s2)C2CC2)c1F [Example 94] |
| 3.25 | CN(CCCc1cc2ccccc2s1)C(=O)c1c(C(F)F)nn(C)c1F [Example 96] |
| 2.69 | Cn1nc(C(F)F)c(C(=O)NCCCC2Cc3ccccc3O2)c1F (stereo not drawn) [Example 97] |
| 1.45 | Cn1nc(C(F)F)c(C(=O)N(CCCC2CC=CO2)C2CC2)c1F (stereo not drawn) [Example 98] |
| 2.75 | Cn1nc(C(F)F)c(C(=O)N(CCCc2ccco2)C2CC2)c1F [Example 99] |
| 2.17 | Cn1nc(C(F)F)c(C(=O)NCCCc2ccco2)c1F [Example 100] |
| 2.25 | CN(CCCc1ccco1)C(=O)c1c(C(F)F)nn(C)c1F [Example 101] |
| 3.04 | Cn1nc(C(F)F)c(C(=O)N(CCCc2cccs2)C2CC2)c1F [Example 102] |
| 3.57 | CC(CCc1cccs1)N(C(=O)c1c(C(F)F)nn(C)c1Cl)C1CC1 (stereo not drawn) [Example 103] |
| 2.52 | CN(CCCc1cccs1)C(=O)c1c(C(F)F)nn(C)c1F [Example 104] |
| 3.33 | Cc1ccsc1CCCN(C(=O)c1c(C(F)F)nn(C)c1F)C1CC1 [Example 105] |
| 4.21 | Cc1ccc2sc(CCCN(C(=O)c3c(C(F)F)nn(C)c3F)C3CC3)cc2c1 [Example 106] |
| 3.41 | Cc1ccc(C(C)CCN(C(=O)c2c(C(F)F)nn(C)c2F)C2CC2)o1 (stereo not drawn) [Example 107] |
| 3.56 | Cc1ccc(C(C)CCN(C(=O)c2c(C(F)F)nn(C)c2Cl)C2CC2)o1 (stereo not drawn) [Example 108] |
| 2.88 | Cc1ccc(C(C)CCN(C)C(=O)c2c(C(F)F)nn(C)c2F)o1 (stereo not drawn) [Example 109] |
| 3.23 | CON(CCC(C)c1ccc(C)o1)C(=O)c1c(C(F)F)nn(C)c1F (stereo not drawn) [Example 112] |
| 3.44 | Cc1ccc(CCCN(C(=O)c2c(C(F)F)nn(C)c2F)C2CC2)s1 [Example 113] |
| 2.21 | Cn1nc(C(F)F)c(C(=O)N(CCCC2CCCO2)C2CC2)c1F (stereo not drawn) [Example 114] |
| 4.37 | CCCN(CCOc1c(Cl)cc(Cl)cc1Cl)C(=O)c1c(C(F)F)nn(C)c1F [Example 204] |

Same assay, conditions: HPLC on reversed-phase column (C18), 40° C., 0.1% aqueous formic acid and acetonitrile, linear gradient 10% to 90% acetonitrile

| SMILES | logP |
| --- | --- |
| CC1CCCC(Cc2cccc(Cl)c2)C1NC(=O)c1c(C(F)F)nn(C)c1Cl (stereo not drawn) [Example 80] | 4.51 |

Same assay, conditions: reversed-phase HPLC column (C18), HPLC, 0.1% aqueous formic acid and acetonitrile, 40° C.; read-out: log P

| chromatographic logP | SMILES |
| --- | --- |
| 2.71 | CC(C)(C)C#Cc1cccc(N)c1 [3-(3,3-dimethylbut-1-yn-1-yl)aniline] |
